Laboratory results as given in patent US20170298056A1, “SMALL MOLECULE INHIBITORS OF HIV-1 ENTRY AND METHODS OF USE THEREOF” (Dana-Farber Cancer Institute, Inc., priority 2014, published 2017).

What was measured:
HIV-1JR-FL = experiment: Viral infection assay, recombinant HIV-1 pseudotyped with JR-FL Env (wild type and mutants), Cf2Th-CD4/CCR5 cells; type: cell-based; details: for IC50: Example 8 table, read-out: IC50 (JR-FL); for Therapeutic Index (TI): calculated from IC50 against JR-FL and A-MLV
Text: HIV-1 Env mutants. Mutations were introduced into the plasmid expressing the fulllength HIV-1YU2 or HIV-1JR-FL Envs using the QuikChange II site-directed mutagenesis protocol or the QuikChange multi site-directed mutagenesis kit (Stratagene). The presence of the desired mutations was confirmed by DNA sequencing. All HIV-1 Env residues are numbered based on alignment with the HXBc2 prototypic sequence, according to current convention.
(§1) Production of recombinant HIV-1 expressing luciferase. […] After 48 hours, the supernatant was collected, buffered with 50 mM Hepes pH 7.4 (final concentration) and centrifuged for 5 minutes at 750×g and 4° C. The virus-containing supernatant was used directly or frozen at −80° C.
(§2) Viral infection assay. Each test compound was serially diluted in DMSO in a 96-well B&W isoplate (PerkinElmer, Boston, Mass.) using an HP D300 Digital Dispenser, to a final volume of 450 nl. DMSO was used as a control. Viruses pseudotyped with a specific Env were added to each well and incubated briefly at room temperature. Cf2Th-CD4/CCR5 cells were detached with StemPro Accutase Cell Dissociation Reagent (Invitrogen, cat #A11105-01), washed once, and 5000 cells were added to each well. […] Following incubation, the medium was aspirated and cells were lysed with 30 μl of Passive Lysis Buffer (Promega, cat #E1941). The activity of the firefly luciferase, which was used as a reporter protein in the system, was measured with a Centro LB 960 luminometer (Berthold Technologies, Oak Ridge, Tenn.). One hundred microliters of assay buffer (15 mM MgSO4, 15 mM KH2PO4/K2HPO4 pH 7.8, 1 mM ATP and 1 mM DTT) was injected to each well, followed by a 50 μl injection of 1 mM Dluciferin potassium salt (BD Pharmingen, San Jose, Calif.); luminescence was measured for 2 sec. Infection of PBMC was done as above, but 20,000-40,000 cells/well and viruses concentrated by ultracentrifugation were used. After four hours of incubation with viruses, the cells were centrifuged at 200×g for 6 minutes at 4° C., resuspended in 100 μl RPMI-PBMC medium and incubated at 37° C. for an additional 36-40 hours (total 40-44 hours). Supernatant was removed after centrifugation at 400×g for 5 minutes and cells were processed to detect luciferase activity, as described above.

[1] = system: amphotropic murine leukemia virus (A-MLV); experiment: Viral infection assay, control virus with A-MLV envelope; type: cell-based; details: Example 8 table; read-out: IC50 (A-MLV)
Method: as §1, §2
The effect of 18A on viral infection was tested using recombinant HIV-1 pseudotyped with the envelope glycoproteins of different primate immunodeficiency viruses or the amphotropic murine leukemia virus (A-MLV) as a control.

Compound	IC50 (HIV-1JR-FL)	IC50 [1]	Therapeutic Index (TI) (HIV-1JR-FL)
COc1ccc(/C=N/NC(=O)Nc2cccc3nsnc23)cc1 [Compound 18A1]	> 112 µM	> 112 µM	
COc1ccc(/C=N/NC(=O)Nc2cccc3nsnc23)c(OC)c1 [Compound 18A2]	60 µM	101 µM	1.7
COc1ccc(/C=N/NC(=O)Nc2cccc3nsnc23)cc1OC [Compound 18A5]	5 µM	25.9 µM	5.1
O=C(N/N=C/c1ccccc1O)Nc1cccc2nsnc12 [Compound 18A10]	~0.7 µM	< 0.5 µM	<1
O=C(N/N=C/c1ccccc1)Nc1cccc2nsnc12 [Compound 18A13]	16.9 µM	75.2 µM	4.4
Cc1cc(/C=N/NC(=O)Nc2cccc3nsnc23)cc(C)c1O [Compound 18A16]	0.2 µM	0.1 µM	0.5
O=C(N/N=C/c1c(O)cc(O)cc1O)Nc1cccc2nsnc12 [Compound 18A17]	24.8 µM	64 µM	2.6
COc1cc(/C=N/NC(=O)Nc2cccc3nsnc23)ccc1O [Compound 18A18]	1.5 µM	0.8 µM	0.6
O=C(N/N=C/c1cccc(O)c1)Nc1cccc2nsnc12 [Compound 18A19]	6.6 µM	46.2 µM	7
O=C(N/N=C/c1ccc(O)c(O)c1)Nc1cccc2nsnc12 [Compound 18A20]	5.2 µM	56.3 µM	10.8
COc1cc(/C=N/NC(=O)Nc2cccc3nsnc23)cc(OC)c1OC [Compound 18A21]	> 112 µM	> 112 µM	
COc1ccc(/C=N/NC(=O)Nc2cccc3nsnc23)cc1O [Compound 18A25]	1.8 µM	11.6 µM	6.4
COc1ccc(/C=N/NC(=O)Nc2cccc3nsnc23)c(Cl)c1OC [Compound 18A30]	> 112 µM	> 112 µM	
O=C(N/N=C/c1ccc(O)c(Cl)c1)Nc1cccc2nsnc12 [Compound 18A32]	4 µM	19.2 µM	
O=C(N/N=C/c1cccc(F)c1)Nc1cccc2nsnc12 [Compound 18A34]	10.2 µM	69.4 µM	6.8
O=C(N/N=C/c1cccc(O)c1O)Nc1cccc2nsnc12 [Compound 18A36]	6.2 µM	50.5 µM	8.1
O=C(N/N=C/c1ccc(O)c([N+](=O)[O-])c1)Nc1cccc2nsnc12 [Compound 18A40]	7.6 µM	> 112 µM	>14.7
O=C(N/N=C/c1ccc(O)c(Br)c1)Nc1cccc2nsnc12 [Compound 18A48]	> 112 µM	> 112 µM	
O=C(N/N=C/c1cc(O)cc(O)c1)Nc1cccc2nsnc12 [Compound 18A49]	13 µM	> 112 µM	>8.6
O=C(N/N=C/c1ccc(Cn2cccn2)cc1)Nc1cccc2nsnc12 [Compound 18A52]	3.4 µM	37.3 µM	11
COc1ccc(/C=N/NC(=O)Nc2cccc3nsnc23)c(O)c1 [Compound 18A58]	> 112 µM	> 112 µM	
